From publication doi:10.1101/636423v1 (biorxiv, 2019)

Assays:
Experiment in all cases: DiFMUP hydrolysis, fluorogenic phosphatase assay
Format in all cases: biochemical
[1] = biological target: rat PTPRZ-D1D2 (PTPRZ-ICR) (Rattus norvegicus, UniProt Q62656); conditions: substrate DiFMUP; competitive; also bound 1:1 to monomer in native MS
[2] = biological target: rat PTPRZ-D1D2 (PTPRZ-ICR) (Rattus norvegicus, UniProt Q62656, D2178K/D2179K); conditions: substrate DiFMUP; competitive; also bound 1:1 in native MS
[3] = biological target: PTPRZ-ΔD2 (ΔD2 mutant of PTPRZ-ICR) (Rattus norvegicus, UniProt Q62656); conditions: substrate DiFMUP; competitive; also bound 1:1 in native MS

Chain of rat PTPRZ-D1D2 (PTPRZ-ICR) (Rattus norvegicus, UniProt Q62656, D2178K/D2179K) (Q62656 1699-2316 D2178K/D2179K): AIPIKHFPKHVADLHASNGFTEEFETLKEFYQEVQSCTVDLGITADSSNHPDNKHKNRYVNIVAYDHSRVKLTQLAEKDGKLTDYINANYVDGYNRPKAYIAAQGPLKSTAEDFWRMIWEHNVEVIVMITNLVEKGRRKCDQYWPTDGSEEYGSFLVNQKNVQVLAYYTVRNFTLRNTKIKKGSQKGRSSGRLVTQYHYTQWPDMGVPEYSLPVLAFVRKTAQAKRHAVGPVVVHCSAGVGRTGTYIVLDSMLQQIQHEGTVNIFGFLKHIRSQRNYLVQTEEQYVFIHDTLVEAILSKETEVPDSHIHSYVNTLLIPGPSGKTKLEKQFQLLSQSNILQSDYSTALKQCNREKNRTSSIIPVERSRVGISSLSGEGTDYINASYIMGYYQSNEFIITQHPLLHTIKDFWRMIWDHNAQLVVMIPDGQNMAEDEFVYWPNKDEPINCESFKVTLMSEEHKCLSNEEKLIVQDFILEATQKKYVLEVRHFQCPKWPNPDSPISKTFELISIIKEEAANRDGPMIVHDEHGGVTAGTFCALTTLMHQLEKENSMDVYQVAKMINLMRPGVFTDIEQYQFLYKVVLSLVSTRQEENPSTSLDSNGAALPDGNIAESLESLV
Chain of rat PTPRZ-D1D2 (PTPRZ-ICR) (Rattus norvegicus, UniProt Q62656) (Q62656 1699-2316): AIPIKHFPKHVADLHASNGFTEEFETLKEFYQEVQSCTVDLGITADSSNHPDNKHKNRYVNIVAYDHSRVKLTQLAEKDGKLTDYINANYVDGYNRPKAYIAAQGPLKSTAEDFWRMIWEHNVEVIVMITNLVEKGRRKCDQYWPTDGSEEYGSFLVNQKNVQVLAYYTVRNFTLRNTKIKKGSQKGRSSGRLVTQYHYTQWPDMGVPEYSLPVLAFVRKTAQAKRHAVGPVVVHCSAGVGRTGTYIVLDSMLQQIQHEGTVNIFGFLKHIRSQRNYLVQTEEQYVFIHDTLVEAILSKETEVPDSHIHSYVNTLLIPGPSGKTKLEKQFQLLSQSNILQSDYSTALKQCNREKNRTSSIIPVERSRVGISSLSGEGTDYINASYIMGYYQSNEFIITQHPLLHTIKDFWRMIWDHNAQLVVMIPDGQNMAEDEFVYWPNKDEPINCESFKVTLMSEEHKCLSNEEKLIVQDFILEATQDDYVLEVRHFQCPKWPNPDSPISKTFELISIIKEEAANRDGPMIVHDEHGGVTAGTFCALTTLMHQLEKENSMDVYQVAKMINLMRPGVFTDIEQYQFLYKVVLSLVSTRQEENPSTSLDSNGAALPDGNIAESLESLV

IC50 [1]: 380 nM | IC50 [2]: 370 nM | IC50 [3]: 400 nM
Substance: SCB4380
